Reference: PMC11378297, “Discovery and Profiling of New Multimodal Phenylglycinamide Derivatives as Potent Antiseizure and Antinociceptive Drug Candidates” (ACS Chemical Neuroscience, 2024)

How the values were obtained:
[1] = tested on: maximal electroshock (MES) seizures, mice; assay: maximal electroshock (MES) seizure test; assay type: in vivo; conditions: Mus musculus, ip; for responders at 100 mg/kg: 0.5 h, read-out: MES: number of mice protected/number of mice tested; for ED50: mice, pretreatment time 0.5 h
Description: (§1) Both the aforementioned parameters (ED50 and TD50) enabled the calculation of protective indexes (PIs), which reflect the comparative the benefit–risk ratio of these experimental therapeutic agents.
(§2) Four mice per group were randomly assigned to each experimental group in the initial screening experiments (each mouse was used just once). Four groups, each with eight animals, received injections of different doses of the investigated substances in order to determine the ED50 or TD50 values. The PIs for the compounds investigated and reference ASMs were calculated by dividing the TD50 value, as determined in the chimney test by the respective ED50 value, as determined in the MES, scPTZ, or 6 Hz (32 mA or 44 mA) tests (PI = TD50/ED50). The PIs are a measure of the potential therapeutic window of the tested agent.
(§3) All substances were suspended in Tween 80 (1% aqueous solution) and administered i.p. as a single injection at a volume of 10 mL/kg. On each day of experimentation, fresh solutions were prepared.

[2] = chimney test (motor coordination, TD50); conditions: mouse, in vivo, ip, mice
Description: as §1, §2, §3

[3] = tested on: 6 Hz (32 mA) seizures, mice; assay: 6 Hz (32 mA) psychomotor seizure test; assay type: in vivo; conditions: Mus musculus, ip, mice; for responders at 100 mg/kg: 100 mg/kg i.p., 0.5 h, read-out: 6 Hz (32 mA): number of mice protected/number of mice tested (converted); for ED50: pretreatment time 0.5 h;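 on all read-outs here: compounds given as one i.p. dose suspended in 1% aqueous Tween 80, with the 6 Hz (32 mA) model considered to reflect focal epilepsy in humans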
Description: as §1, §2, §3

[4] = metabolic stability in human liver microsomes (HLMs); assay type: in vitro ADME; conditions: for remaining at 2 h: human, human liver microsomes, 120 min incubation, TRIS buffer pH 7.4, 37 °C; for metabolic pathway: metabolites M1–M3 (one cell per metabolite)
[5] = tested on: body temperature, mice; assay: capsaicin-induced hypothermia test / rectal temperature; assay type: in vivo, mouse; conditions: 50 mg/kg i.p.
Method: In this study, we used the capsaicin-induced hypothermia model in mice to evaluate the effect of eutomers (R)-31, (R)-32, and (R)-33 on body temperature and to provide more data related to their on-target activity (i.e., antagonism of TRPV1) (Figure S5A–D). Capsaicin given i.p. at a dose of 5 mg/kg produced a marked decrease in rectal temperature at 15 min post injection (p < 0.0001). The temperature returned to normal values within 30–60 min after capsaicin injection. […] None of the tested compounds reversed the capsaicin-induced hypothermia.
The changes in body temperature in the capsaicin-induced hypothermia model were evaluated as described previously. Eutomers (R)-31, (R)-32, and (R)-33 were suspended in a 1% Tween 80 and administered i.p. 15 min before injection of capsaicin (5 mg/kg, i.p.). The corresponding vehicles (1% DMSO or 1% Tween 80) were given to the control animals. Using an electronic thermometer (ThermoWorks, Alpine, Utah, USA), changes in the mouse’s rectal temperature were recorded by inserting the rectal probe approximately 2 cm into the mouse’s rectum. After −15, 0, 15, 30, 60, 90, 120, and 180 min, the measurements were collected. Subsequently, the variations in rectal temperature between the baseline ([…] for the groups receiving compounds and BCTC in conjunction with the vehicle, or […] for the groups receiving the vehicle, compounds, and BCTC in combination with the capsaicin) and the corresponding time point ΔT (°C) were computed and examined.
Figure S5. Acute effects of BCTC (A), (R)-31 (B), (R)-32 (C), and (R)-33 (D) on rectal temperature in the capsaicin-induced test in mice. Capsaicin (CPS) or vehicle (1% DMSO) were injected i.p. at 0 min, as indicated by the arrows.
BCTC, (R)-31, (R)-32, and (R)-33 were suspended in 1% Tween 80 and administered i.p. 15 min before CPS or vehicle injection. The temperature was measured at -15, 0, 15, 30, 60, 90, 120, and 180 min. Since body temperature returned to control values 60 min after CPS injection, subsequent measurements are not shown.
Data are presented as the mean differences (ΔT) in rectal temperature from 0 to -15 min (time point 0 min), from 15 to 0 min (time point 15 min), from 30 to 0 min (time point 30 min), and from 60 to 0 min (time point 60 min); n = 6–8 animals/group. Statistical significance was evaluated using one-way ANOVA with Tukey’s post hoc test: […]
(1 picture or pasted object on this page, not shown here)

[6] = target: T1, CYP2D6 (Homo sapiens, UniProt P10635); assay: CYP2D6 P450-Glo assay; assay type: in vitro ADME
T1 construct: purchased Promega (Madison, WI, USA)
Method: The inhibition effect of enantiomers on CYP2C9 was also determined, but only at the highest concentrations (Figure 10C). In summary, the potential for DDIs of the tested enantiomers in comparison to the reference CYP inhibitors was estimated as very low.
Figure 10 Influence of (R)-31, (R)-32, and (R)-33 on: CYP3A4 activity (A) and the reference inhibitor ketoconazole (KE), CYP2D6 activity (B) and the reference inhibitor quinidine (QD), CYP2C9 activity (C) and the reference inhibitor sulfaphenazole (SE). The results are presented as means + SD. Statistical significance was evaluated by one-way ANOVA, followed by Bonferroni’s multiple comparison post hoc test (Graph Pad Prism 8.0.1 software) *p < 0.05, **p < 0.01, ***p < 0.001, ****p < 0.0001.
All assays and protocols used for the evaluation of compounds ADME-Tox parameters were described previously.[35]−[38],[95]−[98] The precoated PAMPA Plate System Gentest was utilized to estimate passive permeability (Tewksbury, MA, USA). HLMs, obtained from Sigma-Aldrich (St. Louis, MO, USA), were used for the metabolic stability assay. The most likely sites of metabolism could be identified, thanks to the MetaSite 6.0.1 program from Molecular Discovery Ltd. (Hertfordshire, UK), which was used to support the microsome experiments. The impact on recombinant human cytochromes CYP3A4, CYP2D6, and CYP2C9 was examined using CYP3A4, CYP2D6, and CYP2C9 P450-Glo kits supplied by Promega (Madison, WI, USA) in order to anticipate possible DDIs. […] The vitality of the cells was assessed using the CellTiter 96 AQueous Non-Radioactive Cell Proliferation Assay (Promega, Madison, WI, USA), following a 48 h incubation period with either the reference medication, doxorubicin (DOX), or serial dilutions of the investigated compounds. Using an EnSpire PerkinElmer microplate reader (Waltham, MA, USA), the luminescent signal and absorbances (measured at 490 nm) in DDIs and safety assays were determined. […]

T1 sequence (P10635 whole entry): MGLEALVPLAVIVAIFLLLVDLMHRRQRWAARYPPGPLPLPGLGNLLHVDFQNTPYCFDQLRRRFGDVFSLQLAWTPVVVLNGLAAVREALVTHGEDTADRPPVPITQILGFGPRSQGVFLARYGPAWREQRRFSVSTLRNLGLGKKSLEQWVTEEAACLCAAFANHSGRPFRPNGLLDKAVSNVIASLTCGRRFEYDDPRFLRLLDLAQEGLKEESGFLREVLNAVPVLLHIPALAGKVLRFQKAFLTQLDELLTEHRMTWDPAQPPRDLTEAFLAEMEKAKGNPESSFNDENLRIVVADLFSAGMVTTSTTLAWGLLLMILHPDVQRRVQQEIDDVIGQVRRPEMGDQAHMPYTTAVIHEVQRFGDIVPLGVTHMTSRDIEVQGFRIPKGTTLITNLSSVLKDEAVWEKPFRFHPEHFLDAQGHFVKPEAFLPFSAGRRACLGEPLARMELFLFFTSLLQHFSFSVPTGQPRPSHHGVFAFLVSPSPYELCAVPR

## CC(=O)N[C@@H](C(=O)N1CCN(c2cccc(C(F)(F)F)c2)CC1)c1ccccc1 [(R)-31, (R)-N-(2-Oxo-1-phenyl-2-(4-(3-(trifluoromethyl)phenyl)piperazin-1-yl)ethyl)acetamide]
[1]
  responders at 100 mg/kg: 100%
  ED50: 98.4 mg/kg
[2]
  TD50 at 0.5 h: 174 mg/kg
[3]
  responders at 100 mg/kg: 100%
  ED50: 34.5 mg/kg
[4]
  remaining at 2 h: 85.2%
[4]; metabolite 404.19 (M2)
  metabolic pathway: dehydrogenation
[4]; metabolite 422.22 (M3)
  metabolic pathway: hydroxylation
[4]; metabolite 454.01 (M1)
  metabolic pathway: triple-hydroxylation
[5]
  effect on body (rectal) temperature, administered alone: did not significantly affect body temperature
[6]; 1 and 10 μM
  effect on CYP2D6 activity: weak activation

## CC(=O)N[C@@H](C(=O)N1CCN(c2cccc(OC(F)(F)F)c2)CC1)c1ccccc1 [(R)-32, (R)-N-(2-Oxo-1-phenyl-2-(4-(3-(trifluoromethoxy)phenyl)piperazin-1-yl)ethyl)acetamide]
[1]
  responders at 100 mg/kg: 100%
  ED50: 73.9 mg/kg
[2]
  TD50 at 0.5 h: 114 mg/kg
[3]
  responders at 100 mg/kg: 100%
  ED50: 18.8 mg/kg
[4]
  remaining at 2 h: 78.5%
[4]; metabolite 420.22 (M2)
  metabolic pathway: dehydrogenation
[4]; metabolite 438.25 (M1)
  metabolic pathway: hydroxylation
[5]
  effect on body (rectal) temperature, administered alone: did not significantly affect body temperature
[6]; 1 and 10 μM
  effect on CYP2D6 activity: weak activation

## CC(=O)N[C@@H](C(=O)N1CCN(c2cccc(SC(F)(F)F)c2)CC1)c1ccccc1 [(R)-33, (R)-N-(2-Oxo-1-phenyl-2-(4-(3-((trifluoromethyl)thio)phenyl)piperazin-1-yl)ethyl)acetamide]
[1]
  responders at 100 mg/kg: 100%
  ED50: 75.7 mg/kg
[2]
  TD50 at 0.5 h: 146 mg/kg
[3]
  responders at 100 mg/kg: 100%
  ED50: 23.9 mg/kg
[4]
  remaining at 2 h: 70.3%
[4]; metabolite 436.21 (M2)
  metabolic pathway: dehydrogenation
[4]; metabolite 454.08 (M3)
  metabolic pathway: hydroxylation
[5]
  effect on body (rectal) temperature, administered alone: caused a significant drop in rectal temperature
[6]; 25 μM
  effect on CYP2D6 activity: slightly inhibited
